In PubChem BioAssay (NCI):
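How tested: cells in 96-well plates exposed to compound for 48 hours at five concentrations. TGI marks complete inhibition of growth.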

Legend:
Test in all cases: NCI-60 cell line screen, 48 h
786-0 renal = test system: 786-0 renal
A498 renal = test system: A498 renal
A549 NSCLC = test system: A549 NSCLC
ACHN renal = test system: ACHN renal
BT-549 breast = test system: BT-549 breast
CAKI-1 renal = test system: CAKI-1 renal
CCRF-CEM leukemia = test system: CCRF-CEM leukemia
DU-145 prostate = test system: DU-145 prostate
HCC-2998 colon = test system: HCC-2998 colon
HCT-116 colon = test system: HCT-116 colon
HCT-15 colon = test system: HCT-15 colon
HL-60(TB) leukemia = test system: HL-60(TB) leukemia
HOP-62 NSCLC = test system: HOP-62 NSCLC
HOP-92 NSCLC = test system: HOP-92 NSCLC
HS 578T breast = test system: HS 578T breast
HT29 colon = test system: HT29 colon
IGROV1 ovarian = test system: IGROV1 ovarian
K-562 leukemia = test system: K-562 leukemia
KM12 colon = test system: KM12 colon
LOX IMVI melanoma = test system: LOX IMVI melanoma
M14 melanoma = test system: M14 melanoma
MALME-3M melanoma = test system: MALME-3M melanoma
MCF7 breast = test system: MCF7 breast
MDA-MB-231 breast = test system: MDA-MB-231 breast
MDA-MB-435 = test system: MDA-MB-435
MDA-N = test system: MDA-N
MOLT-4 leukemia = test system: MOLT-4 leukemia
NCI-H226 lung = test system: NCI-H226 lung
NCI-H23 lung = test system: NCI-H23 lung
NCI-H460 lung = test system: NCI-H460 lung
NCI-H522 lung = test system: NCI-H522 lung
NCI/ADR-RES ovarian = test system: NCI/ADR-RES ovarian
OVCAR-3 ovarian = test system: OVCAR-3 ovarian
OVCAR-4 ovarian = test system: OVCAR-4 ovarian
OVCAR-5 ovarian = test system: OVCAR-5 ovarian
OVCAR-8 ovarian = test system: OVCAR-8 ovarian
PC-3 prostate = test system: PC-3 prostate
RPMI-8226 leukemia = test system: RPMI-8226 leukemia
RXF 393 renal = test system: RXF 393 renal
SF-268 CNS = test system: SF-268 CNS
SF-295 CNS = test system: SF-295 CNS
SF-539 CNS = test system: SF-539 CNS
SK-MEL-28 melanoma = test system: SK-MEL-28 melanoma
SK-MEL-5 melanoma = test system: SK-MEL-5 melanoma
SN12C renal = test system: SN12C renal
SNB-19 CNS = test system: SNB-19 CNS
SNB-75 CNS = test system: SNB-75 CNS
SR leukemia = test system: SR leukemia
SW-620 colon = test system: SW-620 colon
TK-10 renal = test system: TK-10 renal
U251 CNS = test system: U251 CNS
UACC-257 melanoma = test system: UACC-257 melanoma
UACC-62 melanoma = test system: UACC-62 melanoma
UO-31 renal = test system: UO-31 renal
COLO 205 colon = test system: COLO 205 colon
EKVX NSCLC = test system: EKVX NSCLC
SK-OV-3 ovarian = test system: SK-OV-3 ovarian
T-47D breast = test system: T-47D breast

`O=C1CCCC[C@H]1C(O)CC1CC(=O)N(c2ccccc2)C(=O)C1` (some centres undefined) showed a TGI (786-0 renal) of over 100 µM, a TGI (A498 renal) of over 100 µM and a TGI (A549 NSCLC) of over 100 µM. For the same compound, the TGI (ACHN renal) was over 100 µM, the TGI (BT-549 breast) was over 100 µM and the TGI (CAKI-1 renal) was over 100 µM. It also gave a TGI (CCRF-CEM leukemia) of over 100 µM, a TGI (DU-145 prostate) of over 100 µM and a TGI (HCC-2998 colon) of over 100 µM. The TGI (HCT-116 colon) was over 100 µM, the TGI (HCT-15 colon) was over 100 µM and the TGI (HL-60(TB) leukemia) was over 100 µM. It also gave a TGI (HOP-62 NSCLC) of over 100 µM, a TGI (HOP-92 NSCLC) of over 100 µM and a TGI (HS 578T breast) of over 100 µM. The TGI (HT29 colon) was over 100 µM, the TGI (IGROV1 ovarian) was over 100 µM and the TGI (K-562 leukemia) was over 100 µM. The TGI (KM12 colon) was over 100 µM, the TGI (LOX IMVI melanoma) was over 100 µM and the TGI (M14 melanoma) was over 100 µM. For the same compound, the TGI (MALME-3M melanoma) was over 100 µM, the TGI (MCF7 breast) was over 100 µM and the TGI (MDA-MB-231 breast) was over 100 µM. It also gave a TGI (MDA-MB-435) of over 100 µM, a TGI (MDA-N) of over 100 µM and a TGI (MOLT-4 leukemia) of over 100 µM. It also gave a TGI (NCI-H226 lung) of over 100 µM, a TGI (NCI-H23 lung) of over 100 µM and a TGI (NCI-H460 lung) of over 100 µM. For the same compound, the TGI (NCI-H522 lung) was over 100 µM, the TGI (NCI/ADR-RES ovarian) was over 100 µM and the TGI (OVCAR-3 ovarian) was over 100 µM. It also gave a TGI (OVCAR-4 ovarian) of over 100 µM, a TGI (OVCAR-5 ovarian) of over 100 µM and a TGI (OVCAR-8 ovarian) of over 100 µM. It also gave a TGI (PC-3 prostate) of over 100 µM, a TGI (RPMI-8226 leukemia) of over 100 µM and a TGI (RXF 393 renal) of over 100 µM. The TGI (SF-268 CNS) was over 100 µM, the TGI (SF-295 CNS) was over 100 µM and the TGI (SF-539 CNS) was over 100 µM. The TGI (SK-MEL-28 melanoma) was over 100 µM, the TGI (SK-MEL-5 melanoma) was over 100 µM and the TGI (SN12C renal) was over 100 µM. It also gave a TGI (SNB-19 CNS) of over 100 µM, a TGI (SNB-75 CNS) of over 100 µM and a TGI (SR leukemia) of over 100 µM. For the same compound, the TGI (SW-620 colon) was over 100 µM, the TGI (TK-10 renal) was over 100 µM and the TGI (U251 CNS) was over 100 µM. The TGI (UACC-257 melanoma) was over 100 µM, the TGI (UACC-62 melanoma) was over 100 µM and the TGI (UO-31 renal) was over 100 µM.
In the case of `C[n+]1c(/C=C/c2ccc(/C=N/NC(=O)c3ccc(C(=O)N/N=C/c4ccc(/C=C/c5cn6ccccc6[n+]5C)cc4)cc3)cc2)cn2ccccc21`, the TGI (786-0 renal) is reported as over 100 µM, the TGI (A549 NSCLC) is reported as over 100 µM and the TGI (ACHN renal) is reported as over 100 µM. The TGI (BT-549 breast) was over 100 µM, the TGI (CAKI-1 renal) was over 100 µM and the TGI (CCRF-CEM leukemia) was 49.8 µM. For the same compound, the TGI (COLO 205 colon) was over 100 µM, the TGI (DU-145 prostate) was over 100 µM and the TGI (EKVX NSCLC) was over 100 µM. It also gave a TGI (HCC-2998 colon) of over 100 µM, a TGI (HCT-116 colon) of over 100 µM and a TGI (HCT-15 colon) of over 100 µM. The TGI (HL-60(TB) leukemia) was 67.4 µM, the TGI (HOP-62 NSCLC) was over 100 µM and the TGI (HOP-92 NSCLC) was over 100 µM. The TGI (HS 578T breast) was over 100 µM, the TGI (HT29 colon) was over 100 µM and the TGI (IGROV1 ovarian) was over 100 µM. It also gave a TGI (KM12 colon) of over 100 µM, a TGI (LOX IMVI melanoma) of over 100 µM and a TGI (M14 melanoma) of over 100 µM. The TGI (MALME-3M melanoma) was over 100 µM, the TGI (MCF7 breast) was over 100 µM and the TGI (MDA-MB-231 breast) was over 100 µM. It also gave a TGI (MDA-MB-435) of over 100 µM, a TGI (MDA-N) of over 100 µM and a TGI (MOLT-4 leukemia) of 92.4 µM. For the same compound, the TGI (NCI-H23 lung) was over 100 µM, the TGI (NCI-H460 lung) was over 100 µM and the TGI (NCI/ADR-RES ovarian) was over 100 µM. For the same compound, the TGI (OVCAR-3 ovarian) was over 100 µM, the TGI (OVCAR-5 ovarian) was over 100 µM and the TGI (OVCAR-8 ovarian) was over 100 µM. The TGI (PC-3 prostate) was over 100 µM, the TGI (RPMI-8226 leukemia) was over 100 µM and the TGI (SF-268 CNS) was over 100 µM. The TGI (SF-295 CNS) was over 100 µM, the TGI (SF-539 CNS) was over 100 µM and the TGI (SK-MEL-28 melanoma) was over 100 µM. For the same compound, the TGI (SK-MEL-5 melanoma) was over 100 µM, the TGI (SK-OV-3 ovarian) was over 100 µM and the TGI (SN12C renal) was over 100 µM. For the same compound, the TGI (SNB-19 CNS) was over 100 µM, the TGI (SNB-75 CNS) was over 100 µM and the TGI (SW-620 colon) was over 100 µM. The TGI (T-47D breast) was over 100 µM, the TGI (TK-10 renal) was over 100 µM and the TGI (U251 CNS) was over 100 µM. It also gave a TGI (UACC-257 melanoma) of over 100 µM and a TGI (UO-31 renal) of over 100 µM.
